PubChem BioAssay AID256 (DTP/NCI, 2004)
Values joined by “and” are separate entries in the source; they are usually repeats but may differ in a detail not shown here. Equal entries are not always repeated. Inconclusive results and toxic doses are left out.

Tested on: CD2F1 mice, L1210 leukemia ip, survival T/C
Assay: NCI In Vivo Anticancer Drug Screen. Data for tumor model L1210 Leukemia (intraperitoneal) in CD2F1 (CDF1) mice
Conditions: higher = longer survival
Method in brief: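 Antitumor effect is scored in animals hosting a serially transplanted tumor. Values compare compound-dosed animals against vehicle-only controls as a simple quotient.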

[1] = endpoint: mean survival time, dose: 100.0 mg/kg/injection, schedule: Q04DX002 (ip), vehicle: saline with Tween-80
[2] = endpoint: mean survival time, dose: 200.0 mg/kg/injection, schedule: Q04DX002 (ip), vehicle: saline with Tween-80
[3] = endpoint: mean survival time, dose: 100.0 mg/kg/injection, schedule: Q04DX003 (ip), vehicle: saline with Tween-80
[4] = endpoint: mean survival time, dose: 200.0 mg/kg/injection, schedule: Q04DX003 (ip), vehicle: saline with Tween-80
[5] = endpoint: mean survival time, dose: 100.0 mg/kg/injection, schedule: Q01DX001 (ip), vehicle: saline with Tween-80
[6] = endpoint: mean survival time, dose: 200.0 mg/kg/injection, schedule: Q01DX001 (ip), vehicle: saline with Tween-80
[7] = endpoint: mean survival time, dose: 400.0 mg/kg/injection, schedule: Q01DX001 (ip), vehicle: saline with Tween-80
[8] = endpoint: mean survival time, dose: 75.0 mg/kg/injection, schedule: Q01DX001 (ip), vehicle: saline
[9] = endpoint: mean survival time, dose: 150.0 mg/kg/injection, schedule: Q01DX001 (ip), vehicle: saline
[10] = endpoint: mean survival time, dose: 300.0 mg/kg/injection, schedule: Q01DX001 (ip), vehicle: saline
[11] = endpoint: mean survival time, dose: 400.0 mg/kg/injection, schedule: Q04DX003 (ip), vehicle: saline with Tween-80
[12] = endpoint: mean survival time, dose: 100.0 mg/kg/injection, schedule: Q01DX009 (ip), vehicle: saline with Tween-80
[13] = endpoint: mean survival time, dose: 200.0 mg/kg/injection, schedule: Q01DX009 (ip), vehicle: saline with Tween-80
[14] = endpoint: mean survival time, dose: 400.0 mg/kg/injection, schedule: Q01DX009 (ip), vehicle: saline with Tween-80

## Cc1ncc(CNC(=O)N(CCCl)N=O)c(N)n1
endpoint: mean survival time, dose: 3.12 mg/kg/injection, schedule: Q01DX009 (ip), vehicle: saline
  T/C: 159 % of control
endpoint: mean survival time, dose: 3.13 mg/kg/injection, schedule: Q01DX009 (ip), vehicle: saline with Tween-80
  T/C: 180 % of control
endpoint: mean survival time, dose: 6.25 mg/kg/injection, schedule: Q01DX009 (ip), vehicle: saline with Tween-80
  T/C: 195 % of control
endpoint: mean survival time, dose: 6.25 mg/kg/injection, schedule: Q01DX009 (ip), vehicle: saline
  T/C: 236 % of control
endpoint: mean survival time, dose: 12.5 mg/kg/injection, schedule: Q01DX009 (ip), vehicle: saline with Tween-80
  T/C: 357 % of control
endpoint: mean survival time, dose: 12.5 mg/kg/injection, schedule: Q01DX009 (ip), vehicle: saline
  T/C: 288 % of control
endpoint: mean survival time, dose: 17.5 mg/kg/injection, schedule: Q04DX002 (ip), vehicle: saline
  T/C: 337 % of control
endpoint: mean survival time, dose: 25.0 mg/kg/injection, schedule: Q01DX009 (ip), vehicle: saline with Tween-80
  T/C: 220 % of control
endpoint: mean survival time, dose: 35.0 mg/kg/injection, schedule: Q04DX002 (ip), vehicle: saline
  T/C: 316 % of control

## [Br][Pt+2][Br].[NH-]c1ccccc1F.[NH-]c1ccccc1F
endpoint: mean survival time, dose: 3.13 mg/kg/injection, schedule: Q04DX003 (ip), vehicle: distilled water + Tween-80
  T/C: 104 % of control
endpoint: mean survival time, dose: 6.25 mg/kg/injection, schedule: Q04DX003 (ip), vehicle: distilled water + Tween-80
  T/C: 104 % of control
endpoint: mean survival time, dose: 12.5 mg/kg/injection, schedule: Q04DX003 (ip), vehicle: distilled water + Tween-80
  T/C: 108 % of control
endpoint: mean survival time, dose: 25.0 mg/kg/injection, schedule: Q04DX003 (ip), vehicle: distilled water + Tween-80
  T/C: 108 % of control
endpoint: mean survival time, dose: 50.0 mg/kg/injection, schedule: Q04DX003 (ip), vehicle: distilled water + Tween-80
  T/C: 101 % of control
endpoint: mean survival time, dose: 100.0 mg/kg/injection, schedule: Q04DX003 (ip), vehicle: distilled water + Tween-80
  T/C: 93 % of control

## CC1CN(C2(c3ccccc3)CCCCC2)CCC12OCCO2 (stereo not given)
[1]
  T/C: 93 % of control
[2]
  T/C: 97 % of control

## CC(C(=O)c1ccccc1)N(C)c1ccccc1 (stereo not given)
endpoint: mean survival time, dose: 100.0 mg/kg/injection, schedule: Q04DX003 (ip), vehicle: saline
  T/C: 107 % of control
endpoint: mean survival time, dose: 200.0 mg/kg/injection, schedule: Q04DX003 (ip), vehicle: saline
  T/C: 100 % of control
endpoint: mean survival time, dose: 400.0 mg/kg/injection, schedule: Q04DX003 (ip), vehicle: saline
  T/C: 102 % of control

## CC(=O)NCc1cnccn1
endpoint: mean survival time, dose: 100.0 mg/kg/injection, schedule: Q04DX003 (ip), vehicle: saline sonified
  T/C: 103 % of control
endpoint: mean survival time, dose: 200.0 mg/kg/injection, schedule: Q04DX003 (ip), vehicle: saline sonified
  T/C: 102 % of control
endpoint: mean survival time, dose: 400.0 mg/kg/injection, schedule: Q04DX003 (ip), vehicle: saline sonified
  T/C: 102 % of control

## N#Cc1nc(/C=C\c2ccc3c(c2)OCO3)cnc1N
endpoint: mean survival time, dose: 100.0 mg/kg/injection, schedule: Q01DX001 (ip), vehicle: Klucel (hydroxypropylcellulose) (HPC)
  T/C: 90 % of control
endpoint: mean survival time, dose: 200.0 mg/kg/injection, schedule: Q01DX001 (ip), vehicle: Klucel (hydroxypropylcellulose) (HPC)
  T/C: 90 % of control
endpoint: mean survival time, dose: 400.0 mg/kg/injection, schedule: Q01DX001 (ip), vehicle: Klucel (hydroxypropylcellulose) (HPC)
  T/C: 90 % of control

## Cc1cc(N(C)C)c(C)cc1N=Nc1cc[n+]([O-])cc1
endpoint: mean survival time, dose: 56.3 mg/kg/injection, schedule: Q04DX002 (ip), vehicle: saline with Tween-80
  T/C: 96 % of control
endpoint: mean survival time, dose: 113.0 mg/kg/injection, schedule: Q04DX002 (ip), vehicle: saline with Tween-80
  T/C: 92 % of control

## O=[N+]([O-])c1cc(S(=O)(=O)O)cc([N+](=O)[O-])c1Cl
endpoint: mean survival time, dose: 25.0 mg/kg/injection, schedule: Q01DX009 (ip), vehicle: saline
  T/C: 103 % of control
endpoint: mean survival time, dose: 50.0 mg/kg/injection, schedule: Q01DX009 (ip), vehicle: saline
  T/C: 96 % of control
endpoint: mean survival time, dose: 100.0 mg/kg/injection, schedule: Q01DX009 (ip), vehicle: saline
  T/C: 98 % of control and 103 % of control

## c1c(NC2=NCCO2)cc2c3c1CCCN3CCC2
[3]
  T/C: 92 % of control
[4]
  T/C: 97 % of control

## O=c1[nH]c(=O)n(CCCCOc2ccccc2)cc1-c1ccccc1
[5]
  T/C: 98 % of control
[6]
  T/C: 101 % of control
[7]
  T/C: 96 % of control

## CCCCC/C(C)=C(/C#N)C(=O)OCC
[8]
  T/C: 97 % of control
[9]
  T/C: 96 % of control
[10]
  T/C: 97 % of control

## Nc1ncnc2c1ncn2C1C=C(CO)C(O)C1O (stereo not given)
endpoint: mean survival time, dose: 0.25 mg/kg/injection, schedule: Q01DX009 (ip), vehicle: Klucel (hydroxypropylcellulose) (HPC)
  T/C: 122 % of control
endpoint: mean survival time, dose: 0.5 mg/kg/injection, schedule: Q01DX009 (ip), vehicle: Klucel (hydroxypropylcellulose) (HPC)
  T/C: 113 % of control and 123 % of control
endpoint: mean survival time, dose: 1.0 mg/kg/injection, schedule: Q01DX009 (ip), vehicle: Klucel (hydroxypropylcellulose) (HPC)
  T/C: 124 % of control
endpoint: mean survival time, dose: 4.0 mg/kg/injection, schedule: Q01DX009 (ip), vehicle: Klucel (hydroxypropylcellulose) (HPC)
  T/C: 122 % of control

## C=CCCCCCCCCC(=O)NCc1ccccn1
[5]
  T/C: 93 % of control
[6]
  T/C: 102 % of control
[7]
  T/C: 91 % of control

## CCCCCCCC=C(CCCCCCCC)CCCCCCCC
[5]
  T/C: 100 % of control
[6]
  T/C: 97 % of control
[7]
  T/C: 100 % of control

## COc1ccc(/C=N/O)cc1
[8]
  T/C: 102 % of control
[9]
  T/C: 100 % of control
[10]
  T/C: 101 % of control

## O=C1NC(=S)S/C1=C\c1ccc(Cl)c(Cl)c1
[3]
  T/C: 106 % of control
[4]
  T/C: 94 % of control
[11]
  T/C: 97 % of control

## CC(=O)Nc1ccc(/C=N/NC(=O)CNC(=O)Nc2cccc(C(F)(F)F)c2)cc1
endpoint: mean survival time, dose: 50.0 mg/kg/injection, schedule: Q01DX009 (ip), vehicle: saline with Tween-80
  T/C: 88 % of control
[12]
  T/C: 88 % of control
[13]
  T/C: 92 % of control

## Cc1cc2c(Cl)ncnc2[nH]1
endpoint: median survival time, dose: 25.0 mg/kg/injection, schedule: Q01DX005 (ip), vehicle: saline
  T/C: 95 % of control
endpoint: median survival time, dose: 50.0 mg/kg/injection, schedule: Q01DX005 (ip), vehicle: saline
  T/C: 90 % of control
endpoint: median survival time, dose: 100.0 mg/kg/injection, schedule: Q01DX005 (ip), vehicle: saline
  T/C: 101 % of control

## CC12CCC(=O)C=C1CCC1C2CCC2(C)C(C(=O)Cn3c(=O)cc[nH]c3=O)CCC12 (stereo not given)
endpoint: mean survival time, dose: 12.5 mg/kg/injection, schedule: Q04DX003 (ip), vehicle: Klucel (hydroxypropylcellulose) (HPC)
  T/C: 91 % of control
endpoint: mean survival time, dose: 25.0 mg/kg/injection, schedule: Q04DX003 (ip), vehicle: Klucel (hydroxypropylcellulose) (HPC)
  T/C: 97 % of control
endpoint: mean survival time, dose: 50.0 mg/kg/injection, schedule: Q04DX003 (ip), vehicle: Klucel (hydroxypropylcellulose) (HPC)
  T/C: 91 % of control
endpoint: mean survival time, dose: 100.0 mg/kg/injection, schedule: Q04DX003 (ip), vehicle: Klucel (hydroxypropylcellulose) (HPC)
  T/C: 95 % of control
endpoint: mean survival time, dose: 200.0 mg/kg/injection, schedule: Q04DX003 (ip), vehicle: Klucel (hydroxypropylcellulose) (HPC)
  T/C: 103 % of control

## N#CC(CN1CCOCC1)[N+](=O)[O-] (stereo not given)
[12]
  T/C: 95 % of control
[13]
  T/C: 100 % of control
[14]
  T/C: 118 % of control

## Cc1ccc(C)n1-c1ccccc1
endpoint: mean survival time, dose: 100.0 mg/kg/injection, schedule: Q01DX009 (ip), vehicle: saline + alcohol
  T/C: 107 % of control
[3]
  T/C: 103 % of control
endpoint: mean survival time, dose: 200.0 mg/kg/injection, schedule: Q01DX009 (ip), vehicle: saline + alcohol
  T/C: 105 % of control
[4]
  T/C: 106 % of control
endpoint: mean survival time, dose: 400.0 mg/kg/injection, schedule: Q01DX009 (ip), vehicle: saline + alcohol
  T/C: 100 % of control
[11]
  T/C: 95 % of control

## Cc1ccc2c(c1)N(CCCN(C)C)c1ccccc1S2
endpoint: mean survival time, dose: 22.0 mg/kg/injection, schedule: Q04DX003 (ip), vehicle: saline
  T/C: 105 % of control
endpoint: mean survival time, dose: 33.0 mg/kg/injection, schedule: Q04DX003 (ip), vehicle: saline
  T/C: 97 % of control
endpoint: mean survival time, dose: 50.0 mg/kg/injection, schedule: Q04DX003 (ip), vehicle: saline
  T/C: 105 % of control
endpoint: mean survival time, dose: 75.0 mg/kg/injection, schedule: Q04DX003 (ip), vehicle: saline
  T/C: 103 % of control

## CC(C)(C)C1CC[N-]CC1.CC(C)(C)C1CC[N-]CC1.O=[N+]([O-])O.O=[N+]([O-])O.[Pt+2]
endpoint: mean survival time, dose: 50.0 mg/kg/injection, schedule: Q04DX002 (ip), vehicle: saline with Tween-80
  T/C: 98 % of control
[1]
  T/C: 98 % of control
[2]
  T/C: 95 % of control

## Cc1ccc(NC(=O)NCCCCCCNC(=O)Nc2ccc(C)c(Cl)c2)cc1Cl
[5]
  T/C: 89 % of control
[7]
  T/C: 91 % of control

## O=[N+]([O-])c1cccc(/C=C/C=C/c2ccc(Cl)c(S(=O)(=O)F)c2)c1
[12]
  T/C: 100 % of control
[3]
  T/C: 100 % of control
[13]
  T/C: 94 % of control
[4]
  T/C: 88 % of control
[14]
  T/C: 97 % of control
[11]
  T/C: 90 % of control
